According to patent US9023882B2, “5-membered nitrogen containing heterocyclic derivatives and pharmaceutical compositions comprising the same” (Kissei Pharmaceutical Co., Ltd., priority 2007, dated 2015):

Experiments:
[1] = test system: BBMV from human kidney cortex; experiment: Inhibitory activity of uric acid transport with brush-border membrane vesicles (BBMV); type: biochemical; settings: test compound 100 μM; uptake of 14C-labeled uric acid into human kidney cortex BBMV
Experimental: Inhibitory activity of uric acid transport of test compounds was performed on the basis of methods described in a reference (Am. J. Physiol. 266 (Renal Fluid Electrolyte Physiol. 35): F797-F805, 1994) with a partial modification.
(1) Preparation of BBMV from Human Kidney Cortex
BBMV from human kidney cortex were purchased from KAC. Renal cortex was dissected from human kidney and cut into small pieces. Then, the cortex was homogenized in 5 volumes of ice-cold isotonic buffer (300 mM mannitol, 5 mM ethylene glycol-bis-(β-aminoethylether)-N,N,N′,N′-tetraacetic acid (EGTA), 12 mM tris(hydroxymethyl)aminomethane (Tris).HCl, pH 7.4). After adding 1 M magnesium chloride to a final concentration of 12 mM, and then the suspension was mixed and allowed to stand on ice for 15 minutes. The homogenized solution was centrifuged at 2,500×g for 15 minutes at 4° C., furthermore, the supernatant was centrifuged at 30,000×g for 30 minutes at 4° C. The pellet was resuspended in ice-cold buffer 1 (150 mM mannitol, 2.5 mM EGTA, 6 mM Tris.HCl, pH 7.4). After adding 1 M magnesium chloride to a final concentration of 12 mM, and then the suspension was mixed and allowed to stand on ice for 15 minutes. After centrifugation again at 2,500×g for 15 minutes at 4° C., furthermore, the supernatant was centrifuged at 30,000×g for 30 minutes at 4° C. The pellet was resuspended in ice-cold buffer 2 (100 mM mannitol, 100 mM potassium gluconate, 20 mM 2-[4-(2-hydroxyethyl)-1-piperazinyl]-ethanesulfonic acid (Hepes)-Tris, pH 7.4). After centrifugation at 30,000×g for 30 minutes at 4° C., the pellet was resuspended in buffer 2, and then the protein concentration was determined
(2) Preparation of Test Compounds […]
BBMV were thawed on ice. […] The uptake of uric acid into BBMV was measured by the rapid-filtration technique. […] Furthermore, filters were washed twice with 3 mL of stop solution and dissolved in 10 mL of Filter-Count (PerkinElmer), and the radioactivity was counted in a liquid scintillation counter (PerkinElmer). The radioactivity associated with the filters in the absence of BBMV was used as corrections. […]

human URAT1 = human URAT1 (Homo sapiens (Human), UniProt Q96S37); experiment: Inhibitory activity of uric acid transport with human URAT1 expressing cells; type: cell-based; settings: COS-7; test compound 100 μM; 14C-labeled uric acid uptake in COS7 cells transiently expressing human URAT1
Experimental: (1) Preparation of Transiently Human URAT1 Expressing Cells
Full length human URAT1 cDNA (NCBI Accession No. NM_144585) was subcloned into expression vector, pcDNA3.1 (Invitrogen). Human URAT1 expression vector was transfected into COS7 cells (RIKEN CELL BANK RCB0539) using Lipofectamine 2000 (Invitrogen). COS7 cells were cultured in collagen-coated 24 well plates (Asahi Techno Glass) at 2×10^5/well in D-MEM culture medium (Invitrogen) containing 10% fetal bovine serum (Sanko Junyaku) for 2 hours at 37° C. under the condition of 5% CO2. For 1 well, 2 μL of Lipofectamine 2000 was diluted in 50 μL of OPTI-MEM (Invitrogen) and allowed to stand at room temperature for 7 minutes (hereinafter referred to as Lipo2000-OPTI). For 1 well, 0.8 μg of human URAT1 expression vector was diluted in 50 μL of OPTI-MEM (Invitrogen) and combined gently with Lipo2000-OPTI. After standing at room temperature for 25 minutes, the mixture was added to COS7 cells at 100 μL/well. Furthermore, COS7 cells were cultured for 2 days at 37° C. under the condition of 5% CO2 and used for measuring inhibitory activity on the uptake.
(2) Preparation of Test Compounds
Test compounds were dissolved in DMSO (Wako) at 10 mM concentration and then diluted to 2 times higher concentration than intended with pre-treatment buffer (125 mM sodium gluconate, 4.8 mM potassium gluconate, 1.2 mM potassium dihydrogen phosphate, 1.2 mM magnesium sulfate, 1.3 mM calcium gluconate, 5.6 mM glucose, 25 mM Hepes, pH 7.4). Pre-treatment buffer without test compounds was used for control. […]
All tests were performed on hot-plate at 37° C. […] After mixing, the radioactivity was counted in a liquid scintillation counter (PerkinElmer). The radioactivity in COST cells not transfected with URAT1 expression vector was also counted under the same condition as control. […] Percent inhibition (%)=[1−(B−C)/(A−C)]×100 A: Radioactivity in control B: Radioactivity in the case of addition of test compounds C: Radioactivity in COST cells not transfected with URAT1 expression vector

[2] = molecular target: Xanthine oxidase (from bovine milk, Sigma) (Bos taurus (Bovine), UniProt P80457); experiment: Xanthine oxidase inhibitory activity; type: biochemical; settings: absorbance at 290 nm
Outline: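 Bovine milk enzyme at 0.02 units/mL in PBS was mixed with compound (DMSO stock diluted in PBS) and 200 μM xanthine stock, reacting 10 min at room temperature. Uric acid formation was read as absorbance at 290 nm; IC50 was derived with no-xanthine wells as 0% and no-compound control as 100%.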

serum uric acid = experiment: Serum hypouricemic effect; type: in vivo; settings: 1 mg/kg oral, male CD (SD) IGS rats, 2 hours after administration
Experimental: (1) Method for Measurement
Test compounds at 1 mg/kg suspended in 0.5% methylcellulose solution were administered orally to overnight fasted male CD (SD) IGS rats (5-week-old, Charls River Japan). At 2 hours after administration, blood was collected under ether anesthesia from abdominal aorta, and serum was separated according to general method. Serum uric acid values were determined by use of uric acid measurement kit (Uric acid C-Test Wako: Wako), and percent decrease in uric acid was calculated according to the formula described below. Percent decrease in uric acid (%)=(Serum uric acid values in control animals−Serum uric acid values in animals administered test compounds)×100/Serum uric acid values in control animals (2) Results

human URAT1, sequence (Q96S37 whole entry): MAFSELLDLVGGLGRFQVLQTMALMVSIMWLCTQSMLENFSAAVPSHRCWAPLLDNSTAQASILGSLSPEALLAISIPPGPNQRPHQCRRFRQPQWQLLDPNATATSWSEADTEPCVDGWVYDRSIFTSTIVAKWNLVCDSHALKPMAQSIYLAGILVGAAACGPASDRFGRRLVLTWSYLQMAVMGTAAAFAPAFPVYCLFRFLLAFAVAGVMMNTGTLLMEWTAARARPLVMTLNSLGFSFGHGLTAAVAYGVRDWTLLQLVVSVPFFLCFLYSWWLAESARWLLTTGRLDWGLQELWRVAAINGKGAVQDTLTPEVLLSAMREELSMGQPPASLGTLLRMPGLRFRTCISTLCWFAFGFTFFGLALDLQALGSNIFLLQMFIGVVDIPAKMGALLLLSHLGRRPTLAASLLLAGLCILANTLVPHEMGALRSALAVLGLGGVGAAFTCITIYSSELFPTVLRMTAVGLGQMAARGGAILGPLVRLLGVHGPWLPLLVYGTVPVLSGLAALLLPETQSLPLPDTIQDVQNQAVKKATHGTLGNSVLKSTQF
Xanthine oxidase (from bovine milk, Sigma), sequence (P80457 whole entry): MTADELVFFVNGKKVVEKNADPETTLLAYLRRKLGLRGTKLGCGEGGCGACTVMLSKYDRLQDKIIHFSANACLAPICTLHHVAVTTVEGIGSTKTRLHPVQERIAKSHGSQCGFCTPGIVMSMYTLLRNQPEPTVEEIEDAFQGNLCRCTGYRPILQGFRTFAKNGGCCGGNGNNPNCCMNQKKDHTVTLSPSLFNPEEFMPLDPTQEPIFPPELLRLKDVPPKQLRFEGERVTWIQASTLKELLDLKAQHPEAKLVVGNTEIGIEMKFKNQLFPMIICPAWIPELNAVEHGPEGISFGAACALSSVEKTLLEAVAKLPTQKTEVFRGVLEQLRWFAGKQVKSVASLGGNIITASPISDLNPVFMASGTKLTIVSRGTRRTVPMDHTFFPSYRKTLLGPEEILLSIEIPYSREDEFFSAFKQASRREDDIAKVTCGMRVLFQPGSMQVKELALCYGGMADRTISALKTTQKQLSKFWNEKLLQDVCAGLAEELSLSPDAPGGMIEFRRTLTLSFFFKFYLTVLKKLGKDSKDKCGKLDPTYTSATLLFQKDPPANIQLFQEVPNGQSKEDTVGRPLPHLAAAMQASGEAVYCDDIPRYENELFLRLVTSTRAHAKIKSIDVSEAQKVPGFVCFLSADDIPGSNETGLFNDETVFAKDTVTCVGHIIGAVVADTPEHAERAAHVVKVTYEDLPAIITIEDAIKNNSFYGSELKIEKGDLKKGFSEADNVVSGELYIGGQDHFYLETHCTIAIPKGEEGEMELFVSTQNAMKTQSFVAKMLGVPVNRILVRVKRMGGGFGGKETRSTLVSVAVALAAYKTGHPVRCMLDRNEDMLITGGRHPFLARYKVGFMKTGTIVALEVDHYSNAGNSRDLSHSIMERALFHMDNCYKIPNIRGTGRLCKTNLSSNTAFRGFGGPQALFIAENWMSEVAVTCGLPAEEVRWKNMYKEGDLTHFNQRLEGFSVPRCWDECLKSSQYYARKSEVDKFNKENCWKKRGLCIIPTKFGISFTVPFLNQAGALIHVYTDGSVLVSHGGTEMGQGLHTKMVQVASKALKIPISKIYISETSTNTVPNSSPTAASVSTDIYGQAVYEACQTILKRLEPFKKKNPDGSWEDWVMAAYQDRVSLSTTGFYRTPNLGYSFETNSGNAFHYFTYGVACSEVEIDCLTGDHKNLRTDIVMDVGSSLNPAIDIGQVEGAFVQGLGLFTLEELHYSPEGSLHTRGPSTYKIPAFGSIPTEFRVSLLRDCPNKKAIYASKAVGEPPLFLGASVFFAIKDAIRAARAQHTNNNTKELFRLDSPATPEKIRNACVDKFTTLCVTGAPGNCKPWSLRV

Row | Compound | inhibition at 100 µM (human URAT1) [%] | IC50 ([2]; 0.02 units/mL, xanthine 200 μM, 10 minutes at room temperature) [nM] | IC50 ([2]; 100 μM xanthine final) [nM] | inhibition % [1] [%] | Percent decrease in uric acid (hypouricemic effect) (serum uric acid)
1 | N#Cc1cn(-c2cc(C(=O)O)ccn2)cc1-c1ccccc1 [Example 20, 2-(3-Cyano-4-phenylpyrrole-1-yl)isonicotinic acid] | 77 | 52.1 |  | >90 | 
2 | N#Cc1cn(-c2ccc(C(=O)O)c(O)c2)cc1-c1ccccc1 [Example 301] |  |  | 6.2 |  | over 50%
3 | N#Cc1cn(-c2ccc(C(=O)O)c(O)c2)cc1-c1cccs1 [Example 306] | 91 |  | 7.8 | >90 | 

The remaining molecules from weak to strong by IC50 ([2]; 100 μM xanthine final), led by results:

Row | inhibition at 100 µM (human URAT1) [%] | IC50 ([2]; 0.02 units/mL, xanthine 200 μM, 10 minutes at room temperature) [nM] | IC50 ([2]; 100 μM xanthine final) [nM] | Compound | inhibition % [1] [%] | Percent decrease in uric acid (hypouricemic effect) (serum uric acid)
4 |  |  | 5.2 | N#Cc1cn(-c2ccc(C(=O)O)c(O)c2)cc1-c1ccsc1 [Example 314] |  | over 50%
5 | 89 |  | 3.3 | CCCCc1cn(-c2ccc(C(=O)O)c(O)c2)cc1C#N [Example 355] | >90 | 
